Drawing on patent US20110224079A1, “SPIROHETEROCYCLIC N-OXYAMIDES AS PESTICIDES” (SYNGENTA CROP PROTECTION LLC, priority 2008, published 2011), this text covers mortality for 60 compounds.

For test [1], the system named is Myzus persicae (green peach aphid). The test is described as follows: Example B1: activity against Myzus persicae, sprayed sunflower leaf discs (feeding/residual contact, preventive). To be noted: foliar, 144 h, read-out: activity (mortality).
For test [2] the test system is unchanged. The test is described as follows: Example B17: activity against Myzus persicae on sprayed pepper plants (feeding/residual contact). The class given is in vivo. To be noted: 144 h, infested pepper plants sprayed, 6 days.
Test [3] has the same test system. The test is described as follows: Example B2: activity against Myzus persicae, pea seedling roots in test solution (systemic/feeding, curative). To be noted: 144 h, read-out: activity (mortality).

Usually mortality stands for the share of the test organisms that died. Turning to `CCOC(=O)OC1=C(c2c(C)cc(-c3ccc(Cl)cc3)cc2C)C(=O)N(OCOC)C12CCN(OC)CC2` [P1.20], the mortality at 400 ppm in test [1] was greater than 80%.
Same read-out and setting: the same measure for `CCOC(=O)OC1=C(c2c(C)cc(C)cc2C)C(=O)N(OC2CCCCC2)C12CCN(OC)CC2` [P1.30]: greater than 80%.
Compound `CCOC(=O)OC1=C(c2cc(C)c(Cl)cc2C)C(=O)N(OCOC)C12CCN(OC)CC2` [P1.32] yielded a mortality at 200 ppm in test [2] of no less than 80%.
Consider `CCOC(=O)OC1=C(c2cc(C)c(Cl)cc2C)C(=O)N(OCCOC)C12CCN(OC)CC2` [P1.33], for which the mortality at 400 ppm in test [1] is greater than 80%.
For the compound `CCOC(=O)OC1=C(c2cc(C)c(Cl)cc2C)C(=O)N(OC)C12CCN(OC)CC2` [P1.34], in test [1], the mortality at 400 ppm was greater than 80%.
Turning to `CCOC(=O)OC1=C(c2cc(C)c(C)cc2Cl)C(=O)N(OCCOC)C12CCN(OC)CC2` [P1.35], the mortality at 400 ppm in test [3] and in test [1] was greater than 80% in each case.
Regarding `CCOC(=O)OC1=C(c2cc(C)c(C)cc2C)C(=O)N(OCCOC)C12CCN(OC)CC2` [P1.36], the mortality at 400 ppm in test [1] is greater than 80%.
Regarding `CCOC(=O)OC1=C(c2c(C)ccc(Cl)c2C)C(=O)N(OC)C12CCN(OC)CC2` [P1.37], the mortality at 400 ppm in test [1] is greater than 80%. Moreover, the mortality at 200 ppm in test [2] was no less than 80%.
Taken in the same sequence, the figures for `CCOC(=O)OC1=C(c2cc(C)c(C)cc2Cl)C(=O)N(OCOC)C12CCN(OC)CC2` [P1.38] were greater than 80% and no less than 80%.
Regarding `CCOC(=O)OC1=C(c2cc(C)c(C)cc2Cl)C(=O)N(OC)C12CCN(OC)CC2` [P1.39], in test [1], the mortality at 400 ppm was greater than 80%.
Take `CCOC(=O)OC1=C(c2c(Cl)ccc(C)c2F)C(=O)N(OC)C12CCN(OC)CC2` [P1.41]: the mortality at 400 ppm in test [3] is greater than 80%.
Still for that read-out and setting: the same measure for `CCOC(=O)OC1=C(c2c(Cl)ccc(C)c2F)C(=O)N(OCOC)C12CCN(OC)CC2` [P1.42]: greater than 80%; for `CCOC(=O)OC1=C(c2c(C)cc(C)c(C)c2C)C(=O)N(OCCOC)C12CCN(OC)CC2` [P1.46]: greater than 80%.
On to `CCOC(=O)OC1=C(c2ccc(C)cc2C)C(=O)N(OCOC)C12CCN(OC)CC2` [P1.50], for which the mortality at 400 ppm in test [3] and in test [1] was greater than 80% throughout.
Regarding `CCOC(=O)OC1=C(c2cc(C)c(C)cc2Br)C(=O)N(OCOC)C12CCN(OC)CC2` [P1.52], the mortality at 400 ppm in test [3] was greater than 80%.
Consider `CCOC(=O)OC1=C(c2cc(C)c(C)cc2C)C(=O)N(OC)C12CCN(OC)CC2` [P1.57], for which the mortality at 400 ppm in test [3] and in test [1] was greater than 80% throughout. In addition, in test [2], the mortality at 200 ppm is no less than 80%.
For `CCOC(=O)OC1=C(c2c(C)cc(Br)cc2C)C(=O)N(OC2CCCO2)C12CCN(OC)CC2` (centres unmarked) [P1.63], the mortality at 400 ppm in test [3] and in test [1] was greater than 80% each time. The same compound registered a mortality at 200 ppm in test [2] of no less than 80%.
`CCOC(=O)OC1=C(c2cc(C)c(C)cc2Cl)C(=O)N(OC2CCCO2)C12CCN(OC)CC2` (centres unmarked) [P1.64]: the mortality at 400 ppm in test [3] was greater than 80%.
For the compound `CCOC(=O)OC1=C(c2c(C)ccc(Cl)c2C)C(=O)N(OCCOC)C12CCN(OC)CC2` [P1.65], the mortality at 400 ppm in test [3] is greater than 80%. This compound showed a mortality at 200 ppm in test [2] of no less than 80%.
Regarding `CCOC(=O)OC1=C(c2c(C)cc(C)cc2Br)C(=O)N(OC)C12CCN(OC)CC2` [P1.66], the mortality at 400 ppm in test [3] and in test [1] was greater than 80% each time.
With `CCOC(=O)OC1=C(c2c(C)cc(C)cc2Br)C(=O)N(OCCOC)C12CCN(OC)CC2` [P1.67], the mortality at 400 ppm in test [3] and in test [1] was greater than 80% throughout.
On to `CCOC(=O)OC1=C(c2c(C)cc(C)cc2Br)C(=O)N(OCOC)C12CCN(OC)CC2` [P1.68], for which the mortality at 400 ppm in test [3] and in test [1] was greater than 80% in each case.
On to `CCOC(=O)OC1=C(c2c(C)cccc2C)C(=O)N(OCCOC)C12CCN(OC)CC2` [P1.73], for which the mortality at 400 ppm in test [3] and in test [1] was greater than 80% in each case. This compound registered a mortality at 200 ppm in test [2] of no less than 80%.
Regarding `CCOC(=O)OC1=C(c2c(C)cc(C)cc2C)C(=O)N(OC2COC2)C12CCN(OC)CC2` [P1.79], in test [3], the mortality at 400 ppm is greater than 80%. In addition, the mortality at 200 ppm in test [2] was no less than 80%.
Regarding `CCOC(=O)OC1=C(c2c(C)cc(Br)cc2C)C(=O)N(OCCOC)C12CCN(OC)CC2` [P1.89], the mortality at 400 ppm in test [3] and in test [1] was greater than 80% each time. In test [2], this compound gave a mortality at 200 ppm of no less than 80%.
As for `CCOC(=O)OC1=C(c2c(F)ccc(C)c2Cl)C(=O)N(OC2CCCO2)C12CCN(OC)CC2` (centres unmarked) [P1.102], the mortality at 400 ppm in test [3] was greater than 80%.
Turning to `CCOC(=O)OC1=C(c2cc(C)c(Cl)cc2C)C(=O)N(OC2CCCO2)C12CCN(OC)CC2` (centres unmarked) [P1.103], the mortality at 400 ppm in test [1] was greater than 80%.
Take `CCOC(=O)OC1=C(c2c(C)cc(C)cc2C)C(=O)N(OC2CCOC2)C12CCN(OC)CC2` (centres unmarked) [P1.108]: the mortality at 400 ppm in test [3] and in test [1] was greater than 80% each time.
For `CON1CCC2(CC1)C(O)=C(c1cc(C)c(Cl)cc1C)C(=O)N2OC` [P2,31], the mortality at 200 ppm in test [2] is no less than 80%.
Take `COCON1C(=O)C(c2cc(C)c(Cl)cc2C)=C(O)C12CCN(OC)CC2` [P2.27]: the mortality at 400 ppm in test [3] is greater than 80%.
Take `COCCCON1C(=O)C(c2c(C)cc(C)cc2C)=C(O)C12CCN(OC)CC2` [P2.28]: the mortality at 400 ppm in test [3] and in test [1] was greater than 80% each time.
In the case of `COCCON1C(=O)C(c2cc(C)c(Cl)cc2C)=C(O)C12CCN(OC)CC2` [P2.29], the mortality at 200 ppm in test [2] is no less than 80%.
Consider `COCCON1C(=O)C(c2cc(C)c(C)cc2Cl)=C(O)C12CCN(OC)CC2` [P2.32], for which the mortality at 400 ppm in test [3] was greater than 80%.
As for `CON1CCC2(CC1)C(O)=C(c1ccc(C)cc1C)C(=O)N2OC1CCCO1` (centres unmarked) [P2.33], the mortality at 400 ppm in test [3] and in test [1] was greater than 80% throughout. For the same compound, the mortality at 200 ppm in test [2] is no less than 80%.
As for `CON1CCC2(CC1)C(O)=C(c1cc(C)c(C)cc1C)C(=O)N2OC` [P2.36], the mortality at 400 ppm in test [1] was greater than 80%. Further, the mortality at 200 ppm in test [2] was no less than 80%.
With `COCCON1C(=O)C(c2cc(C)c(C)cc2C)=C(O)C12CCN(OC)CC2` [P2.37], the mortality at 400 ppm in test [1] was greater than 80%.
Take `COCON1C(=O)C(c2cc(C)c(C)cc2C)=C(O)C12CCN(OC)CC2` [P2.38]: the mortality at 400 ppm in test [1] is greater than 80%. Moreover, the mortality at 200 ppm in test [2] is no less than 80%.
Turning to `CON1CCC2(CC1)C(O)=C(c1c(C)ccc(Cl)c1C)C(=O)N2OC` [P2.40], the mortality at 400 ppm in test [3] and in test [1] was greater than 80% in each case. The mortality at 200 ppm in test [2] is no less than 80%.
As for `COCON1C(=O)C(c2cc(C)c(C)cc2Br)=C(O)C12CCN(OC)CC2` [P2.41], the mortality at 400 ppm in test [3] and in test [1] was greater than 80% in each case.
Compound `CON1CCC2(CC1)C(O)=C(c1cc(C)c(C)cc1Cl)C(=O)N2OC` [P2.43] showed a mortality at 200 ppm in test [2] of no less than 80%.
`CON1CCC2(CC1)C(O)=C(c1c(Cl)ccc(C)c1F)C(=O)N2OC1CCCO1` (centres unmarked) [P2.44]: in test [3], the mortality at 400 ppm is greater than 80%.
The same measure, in the same setting: the same measure for `COCON1C(=O)C(c2c(Cl)ccc(C)c2F)=C(O)C12CCN(OC)CC2` [P2.46]: greater than 80%.
In the case of `CON1CCC2(CC1)C(O)=C(c1c(C)cc(C)c(C)c1C)C(=O)N2OC` [P2.49], the mortality at 400 ppm in test [3] was greater than 80%.
In the case of `COCON1C(=O)C(c2ccc(C)cc2C)=C(O)C12CCN(OC)CC2` [P2.52], the mortality at 400 ppm in test [3] and in test [1] was greater than 80% in each case.
With `COCCON1C(=O)C(c2cc(C)c(C)cc2Br)=C(O)C12CCN(OC)CC2` [P2.53], the mortality at 400 ppm in test [3] was greater than 80%.
The same measure, in the same setting: the same measure for `COCCON1C(=O)C(c2c(F)ccc(C)c2Cl)=C(O)C12CCN(OC)CC2` [P2.59]: greater than 80%.
In the case of `CCOCON1C(=O)C(c2ccc(C)cc2C)=C(O)C12CCN(OC)CC2` [P2.61], the mortality at 400 ppm in test [3] and in test [1] was greater than 80% throughout.
For `CON1CCC2(CC1)C(O)=C(c1c(C)cc(C)cc1C)C(=O)N2OC1COC1` [P2.66], the mortality at 400 ppm in test [3] and in test [1] was greater than 80% each time. In addition, the mortality at 200 ppm in test [2] was no less than 80%.
Turning to `COCCON1C(=O)C(c2c(C)ccc(Cl)c2C)=C(O)C12CCN(OC)CC2` [P2.70], the mortality at 400 ppm in test [3] and in test [1] was greater than 80% each time. In test [2], this compound returned a mortality at 200 ppm of no less than 80%.
As for `COCON1C(=O)C(c2c(C)ccc(Cl)c2C)=C(O)C12CCN(OC)CC2` [P2.71], the mortality at 400 ppm in test [3] is greater than 80%. Moreover, the mortality at 200 ppm in test [2] is no less than 80%.
`COCON1C(=O)C(c2c(C)cc(C)cc2Br)=C(O)C12CCN(OC)CC2` [P2.72]: the mortality at 400 ppm in test [3] and in test [1] was greater than 80% in each case.
On to `COCON1C(=O)C(c2cc(Br)c(C)cc2C)=C(O)C12CCN(OC)CC2` [P2.74], for which the mortality at 400 ppm in test [1] is greater than 80%.
Take `CON1CCC2(CC1)C(O)=C(c1c(C)cccc1C)C(=O)N2OC` [P2.78]: the mortality at 400 ppm in test [3] and in test [1] was greater than 80% in each case. This compound gave a mortality at 200 ppm in test [2] of no less than 80%.
Consider `COCCON1C(=O)C(c2c(C)cc(Br)cc2C)=C(O)C12CCN(OC)CC2` [P2.80], for which the mortality at 400 ppm in test [3] and in test [1] was greater than 80% in each case.
With `CON1CCC2(CC1)C(O)=C(c1c(C)cc(C)cc1C)C(=O)N2OCC1CCSCC1` [P2.82], the mortality at 200 ppm in test [2] was no less than 80%.
For `CON1CCC2(CC1)C(O)=C(c1c(F)ccc(C)c1Cl)C(=O)N2OC1CCCO1` (centres unmarked) [P2.92], the mortality at 400 ppm in test [3] and in test [1] was greater than 80% in each case.
As for `CON1CCC2(CC1)C(O)=C(c1cc(C)c(Cl)cc1C)C(=O)N2OC1CCCO1` (centres unmarked) [P2.93], the mortality at 400 ppm in test [1] was greater than 80%.
For the compound `CON1CCC(ON2C(=O)C(c3c(C)cc(C)cc3C)=C(O)C23CCN(OC)CC3)CC1` [P2.95], in test [3], the mortality at 400 ppm is greater than 80%. This compound showed a mortality at 200 ppm in test [2] of no less than 80%.
Turning to `CON1CCC2(CC1)C(O)=C(c1c(C)cc(C)cc1C)C(=O)N2OC1CCOC1` (centres unmarked) [P2.98], the mortality at 400 ppm in test [3] and in test [1] was greater than 80% throughout.
With `CON1CCC2(CC1)C(O)=C(c1c(C)cc(C)cc1C)C(=O)N2OCCSC` [P2.99], the mortality at 400 ppm in test [3] is greater than 80%. In test [2], the mortality at 200 ppm is no less than 80%.
